Assay results from paper PMC10133546, “Simultaneous determination of multiple components in rat plasma by UHPLC-sMRM for pharmacokinetic studies after oral administration of Qingjin Yiqi Granules” (Frontiers in Pharmacology, 2023).
Read-outs that look alike come from different tables or passages of the source.

What was measured:
[1] = Pharmacokinetic study in rat plasma after oral administration of QJYQ (UHPLC-sMRM); type: in vivo, Sprague-Dawley rats
Protocol: Exion LC AD tandem Blueline 3500 triple quadrupole mass spectrometer (AB SCIEX, Framingham, MA, United States) was used to thirty-three compounds in rat plasma. […] The whole detailed parameters of sMRM were obtained in Supplementary Table S1.
Rat plasma (100 μL) was mixed with 10% formic acid (10 μL) and vortexed for 1 min at room temperature. ISs (10 μL) and methanol/acetonitrile (1/1, v/v) (400 μL) were added and vortexed for 5 min, then centrifuged for 10 min at 14,000 rpm and 4°C. The transported supernatant was condensed to dryness under the flow of nitrogen gas. The dried residue was reconstituted with 70% methanol (100 μL) by vortex-mixing for 5 min and centrifuging at 14,000 rpm for 10 min. Last, 2 μL of the solution were injected into the UHPLC-sMRM system.
The pharmacokinetic study was approved by the Animal Ethics Committee of Tianjin University of Traditional Chinese Medicine (TCM-LAEC2021228). Ten male Sprague-Dawley rats (weight 220–240 g) was kept at the animal center of Tianjin University of Traditional Chinese Medicine (Tianjin, China). […] The sample was transferred right away following a 10 min period of centrifugation at 7000 rpm and 4°C. All plasma samples were frozen and stored at −80°C.
All the pharmacokinetic parameters were calculated using the DAS 1.0 software (Drug and Statistics 1.0, Medical College of Wannan, China). Pharmacokinetic parameters include the maximum drug concentration in plasma (Cmax), the time to achieve maximum drug concentration (Tmax), the area under the plasma concentration-time curve (AUC), elimination half-life (T1/2), and mean residence time (MRT). The pharmacokinetic parameters were computed using the non-compartmental model. All data are expressed as mean ± standard deviation (SD). GraphPad Prism 8.0 (GraphPad Software Inc., La Jolla, CA, United States) software was used to draw the drug-time curve.

[2] = Stability of the working solution (4°C for 1 month); type: physicochemical
[3] = Stability of analytes in rat plasma (auto-sampler, freeze-thaw, room temperature, long-term); conditions: for Autosampler for 24 h Accuracy (%): autosampler 24 h; for Room temperature for 24 h Accuracy (%): room temperature 24 h; for Freeze thaw cycles Accuracy (%): three freeze-thaw cycles
Protocol: The stability of analytes in plasma was evaluated by analyzing 4 QC samples (n = 6). The stability was included auto-sampler stability (keeping the sample in auto-sampler for 24 h), three times of freeze-thaw cycles stability (freezing cycle at −80°C, thawing cycle at room temperature), room temperature stability (storing samples at room temperature for 24 h), long-term stability (storing samples at −80°C for 1 month). […] Accompanying curve was established when testing the sample, calculate and compare the ratio of the actual measured concentration to the theoretical concentration, expressed in accuracy and RSD.

## COC(=O)C1=CO[C@@H](O[C@@H]2O[C@H](CO)[C@@H](O)[C@H](O)[C@H]2O)[C@H]2[C@@H]1C(=O)C[C@@H]2C [verbenalin]
[1]; rat, in vivo, po, 3.15 g/kg
  AUC(0-t): 618.13 ± 161.10 ng·h/mL
  AUC(0-∞): 669.34 ± 164.70 ng·h/mL
  Cmax: 135.83 ± 52.28 ng/mL
  MRT (0-∞): 7.95 ± 4.85 h
  MRT(0-t): 4.85 ± 0.77 h
  T1/2: 8.37 ± 2.80 h
  Tmax: 1.37 ± 0.80 h
[2]; 12.5 ng/mL
  Working solution Accuracy (%): 83.3%
[2]; 50 ng/mL
  Working solution Accuracy (%): 89.5%
[2]; 100 ng/mL
  Working solution Accuracy (%): 86.2%
[2]; 500 ng/mL
  Working solution Accuracy (%): 96.4%
[3]; 12.5 ng/mL
  Autosampler for 24 h Accuracy (%): 84.9%
  Room temperature for 24 h Accuracy (%): 104.0%
  Freeze thaw cycles Accuracy (%): 93.8%
[3]; 12.5 ng/mL, −80°C 1 month
  −80°C for 1month Accuracy (%): 89.1%
[3]; 50 ng/mL
  Autosampler for 24 h Accuracy (%): 92.5%
  Room temperature for 24 h Accuracy (%): 88.9%
[3]; 100 ng/mL
  Autosampler for 24 h Accuracy (%): 89.7%
  Room temperature for 24 h Accuracy (%): 91.2%
  Freeze thaw cycles Accuracy (%): 87.8%
[3]; 100 ng/mL, −80°C 1 month
  −80°C for 1month Accuracy (%): 95.7%
[3]; 500 ng/mL
  Autosampler for 24 h Accuracy (%): 88.3%
  Room temperature for 24 h Accuracy (%): 104.0%
  Freeze thaw cycles Accuracy (%): 88.5%
[3]; 500 ng/mL, −80°C 1 month
  −80°C for 1month Accuracy (%): 104.0%

## CC1(C)[C@@H](O[C@H]2O[C@H](C(=O)O)[C@@H](O)[C@H](O)[C@H]2O[C@@H]2O[C@H](C(=O)O)[C@@H](O)[C@H](O)[C@H]2O)CC[C@]2(C)[C@H]3C(=O)C=C4[C@@H]5C[C@@](C)(C(=O)O)CC[C@]5(C)CC[C@@]4(C)[C@]3(C)CC[C@@H]12 [glycyrrhizic acid]
[1]; male, Sprague-Dawley, rat, plasma, po, 3.15 g/kg, rat plasma, oral QJYQ 3.15 g/kg, n = 8, mean ± SD, read-out: Tmax
  Tmax: < 0.5 h
[1]; male, Sprague-Dawley, rat plasma, oral QJYQ 3.15 g/kg, n = 8, mean ± SD
  half-life: 1.67 ± 0.16 h
[1]; male, Sprague-Dawley, rat plasma, oral QJYQ 3.15 g/kg, n = 8, mean ± SD, read-out: AUC(0-t)
  AUC(0-t): 1110 ± 138 ng·h/mL
[1]; male, Sprague-Dawley, rat plasma, oral QJYQ 3.15 g/kg, n = 8, mean ± SD, read-out: AUC(0-∞)
  AUC(0-inf): 1120 ± 228 ng·h/mL
[1]; male, Sprague-Dawley, rat plasma, oral QJYQ 3.15 g/kg, n = 8, mean ± SD, read-out: Cmax
  Cmax: 359 ± 147 ng/mL
[1]; male, Sprague-Dawley, rat plasma, oral QJYQ 3.15 g/kg, n = 8, mean ± SD, read-out: MRT (0-∞)
  MRT inf: 5.38 ± 1.16 h
[1]; male, Sprague-Dawley, rat plasma, oral QJYQ 3.15 g/kg, n = 8, mean ± SD, read-out: MRT(0-t)
  MRT last: 5.3 ± 0.28 h
[2]; concentration 50 ng/mL
  Working solution Accuracy (%): 88.5%
[2]; concentration 100 ng/mL
  Working solution Accuracy (%): 104.0%
[2]; concentration 500 ng/mL
  Working solution Accuracy (%): 87.0%
[3]; concentration 12.5 ng/mL
  Autosampler for 24 h Accuracy (%): 94.4%
  Freeze thaw cycles Accuracy (%): 84.6%
[3]; concentration 50 ng/mL
  Autosampler for 24 h Accuracy (%): 100.0%
  Room temperature for 24 h Accuracy (%): 94.6%
[3]; concentration 100 ng/mL
  Autosampler for 24 h Accuracy (%): 94.3%
  Room temperature for 24 h Accuracy (%): 107.0%
[3]; concentration 500 ng/mL
  Autosampler for 24 h Accuracy (%): 94.5%
  Room temperature for 24 h Accuracy (%): 89.9%
  Freeze thaw cycles Accuracy (%): 97.0%
[3]; −80°C for 1 month, concentration 12.5 ng/mL
  −80°C for 1month Accuracy (%): 85.6%
[3]; −80°C for 1 month, concentration 50 ng/mL
  −80°C for 1month Accuracy (%): 89.7%
[3]; −80°C for 1 month, concentration 100 ng/mL
  −80°C for 1month Accuracy (%): 96.2%
[3]; −80°C for 1 month, concentration 500 ng/mL
  −80°C for 1month Accuracy (%): 93.4%
